{"source": "patent US7833551B2", "about": "“Inhibition of biogenic sulfide production via biocide and metabolic inhibitor combination” (ConocoPhillips Company, priority 2004, dated 2010)", "tested_on": "sulfate-reducing bacterial (SRB) consortium", "experiment": "Inhibition of sulfate reduction and sulfide production in SRB cultures for one month (MIC and biocide/metabolic inhibitor combinations)", "format": "cell-based, sulfate-reducing bacteria (Coleville SRB enrichment)", "conditions": "720 h; minimum concentration necessary to prevent sulfide production by SRB for 30 days after contact; compound alone; certain test conditions; read-out: minimum inhibitory concentration (MIC)", "procedure": "The sulfate-reducing bacterial (SRB) consortium used in this study was enriched from produced water obtained from the Coleville oil field near Kindersely, Sadkatchewan, Canada. […] The SRB consortium was maintained by weekly transfer in sPGC medium, and incubated at 30° C. […] The sPGC contained the following components per 1 liter of distilled water: 7 g NaCl; 1.2 g MgCl26H2O; 0.5 g KH2PO4; 1 g NH4Cl; 4.5 g Na2SO4; 0.042 g CaCl22H2O; 0.03 g MgSO47H2O; 0.004 g FeSO47H2O; 0.28 g sodium citrate; 10 g 60% sodium lactate; 1 g yeast extract; and a trace amount of rezazurin.\nThe cultures used in this study were grown in 100 mL of modified Coleville synthetic brine medium (mCSB) in 160-ml serum bottles, with a headspace of 5% H2, 10% CO2 balance N2. […]\nSulfate was measured using the turbidimetric method described in: American Public Health Association, Standard Methods for the Examination of Water and Wastewater. […]\nFor each biocide and metabolic inhibitor tested, the minimum inhibitory concentration (MIC; the minimum amount of biocide required to inhibit sulfate reduction and sulfide production in the SRB culture for one month) was determined."}
{"smiles": "O=CCCCC=O", "note": "[glutaraldehyde]", "values": [{"measurement": "MIC", "result": 5, "unit": "mM"}]}
